Laboratory results taken from PMC6409085, “Three odorant-binding proteins are involved in the behavioral response of Sogatella furcifera to rice plant volatiles” (PeerJ, 2019).
pIC50: −log10 of the molar value. Values joined by “and” are separate entries in the source; they are usually repeats but may differ in a detail not shown here. Equal entries are not always repeated.

Assays:
[1] = system: S. furcifera adults; experiment: Y-tube olfactometer behavioral trials; type: in vivo, Sogatella furcifera; details: odorant 50 µL/L vs hexane
How it was run: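 Single S. furcifera adults (2 days post-emergence, starved 0.5 h) chose between odorant (100 µL of 50 µL/L on filter paper) and hexane control in a glass Y-tube, charcoal-filtered humidified air 300 mL/min per arm, 25 ± 1 °C, 50% RH. Choice scored if insect passed half an arm and stayed >1 min within 10 min; 45 insects per compound, chi-squared test.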

[2] = target: SfurOBP2 (Sogatella furcifera, UniProt V5T759); experiment: biochemical; type: binding
Chain of SfurOBP2 (V5T759 entry or part of it): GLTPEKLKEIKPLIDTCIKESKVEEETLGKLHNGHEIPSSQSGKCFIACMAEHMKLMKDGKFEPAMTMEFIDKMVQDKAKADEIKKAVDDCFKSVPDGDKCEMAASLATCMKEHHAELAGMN
How it was run: (§1)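 1-NPN displacement assay with odorant competitor at 2–20 µM; protein and probe both 2.0 µM at pH 7.4. Ki is calculated from IC50 using the protein/1-NPN dissociation constant.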

[3] = target: SfurOBP3 (Sogatella furcifera, UniProt V5T818); experiment: biochemical; type: binding; details: for Fluorescence competitive binding assay, fluorescence intensity: OBP3, three replicate columns
Chain of SfurOBP3 (V5T818 entry or part of it): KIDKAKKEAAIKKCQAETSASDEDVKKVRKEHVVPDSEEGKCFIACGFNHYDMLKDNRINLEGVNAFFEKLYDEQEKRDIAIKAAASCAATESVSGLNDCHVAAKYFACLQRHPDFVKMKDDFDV
How it was run: as §1

[4] = target: SfurOBP11 (Sogatella furcifera, UniProt V5T6E3); experiment: biochemical; type: binding
Chain of SfurOBP11 (V5T6E3 entry or part of it): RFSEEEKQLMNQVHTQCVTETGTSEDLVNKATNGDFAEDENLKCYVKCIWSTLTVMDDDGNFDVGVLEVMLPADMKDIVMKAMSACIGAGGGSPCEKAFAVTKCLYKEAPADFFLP
How it was run: as §1

[5] = target: SfurOBP1 (Sogatella furcifera, UniProt V5T8N5); experiment: biochemical; type: binding; details: for Fluorescence competitive binding assay, fluorescence intensity: OBP1, three replicate columns
Chain of SfurOBP1 (V5T8N5 entry or part of it): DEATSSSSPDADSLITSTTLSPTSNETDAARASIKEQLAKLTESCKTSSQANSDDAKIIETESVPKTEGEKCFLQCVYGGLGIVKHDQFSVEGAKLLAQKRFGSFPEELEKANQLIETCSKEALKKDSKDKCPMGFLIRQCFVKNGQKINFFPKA
How it was run: as §1

With `C=C/C(C)=C/C/C=C(\C)CCC=C(C)C` [α-farnesene] the “behavioral response of S. furcifera (in words)” value [1] was “strongly attracted”, the “number of insects choosing hexane arm” value ([1]; adults) was 10 and the “number of insects choosing volatilies arm” value ([1]; adults) was 25. For the same compound, the “number of insects failed (no choice)” value ([1]; adults) was 5, the pIC50 ([2]; SfurOBP2, protein and 1-NPN both 2.0 µM, competitor 2-20 µM, read-out: IC50) was less than 4.70 and the “Fluorescence competitive binding assay, OBP2 (raw fluorescence reading)” value ([2]; ligand concentration 2 (unit not given), replicate column 1 of 3) was 15175. For the same compound, the “Fluorescence competitive binding assay, OBP2 (raw fluorescence reading)” value ([2]; ligand concentration 2 (unit not given), replicate column 2 of 3) was 15154, the “Fluorescence competitive binding assay, OBP2 (raw fluorescence reading)” value ([2]; ligand concentration 2 (unit not given), replicate column 3 of 3) was 16258 and the “Fluorescence competitive binding assay, OBP2 (raw fluorescence reading)” value ([2]; ligand concentration 4 (unit not given), replicate column 1 of 3) was 15758. For the same compound, the “Fluorescence competitive binding assay, OBP2 (raw fluorescence reading)” value ([2]; ligand concentration 4 (unit not given), replicate column 2 of 3) was 17105, the “Fluorescence competitive binding assay, OBP2 (raw fluorescence reading)” value ([2]; ligand concentration 4 (unit not given), replicate column 3 of 3) was 16490 and the “Fluorescence competitive binding assay, OBP2 (raw fluorescence reading)” value ([2]; ligand concentration 6 (unit not given), replicate column 1 of 3) was 15945. For the same compound, the “Fluorescence competitive binding assay, OBP2 (raw fluorescence reading)” value ([2]; ligand concentration 6 (unit not given), replicate column 2 of 3) was 16570, the “Fluorescence competitive binding assay, OBP2 (raw fluorescence reading)” value ([2]; ligand concentration 6 (unit not given), replicate column 3 of 3) was 19054 and the “Fluorescence competitive binding assay, OBP2 (raw fluorescence reading)” value ([2]; ligand concentration 8 (unit not given), replicate column 1 of 3) was 15963. For the same compound, the “Fluorescence competitive binding assay, OBP2 (raw fluorescence reading)” value ([2]; ligand concentration 8 (unit not given), replicate column 2 of 3) was 18724, the “Fluorescence competitive binding assay, OBP2 (raw fluorescence reading)” value ([2]; ligand concentration 8 (unit not given), replicate column 3 of 3) was 18059 and the “Fluorescence competitive binding assay, OBP2 (raw fluorescence reading)” value ([2]; ligand concentration 10 (unit not given), replicate column 1 of 3) was 16134. The “Fluorescence competitive binding assay, OBP2 (raw fluorescence reading)” value ([2]; ligand concentration 10 (unit not given), replicate column 2 of 3) was 18215, the “Fluorescence competitive binding assay, OBP2 (raw fluorescence reading)” value ([2]; ligand concentration 10 (unit not given), replicate column 3 of 3) was 19226 and the “Fluorescence competitive binding assay, OBP2 (raw fluorescence reading)” value ([2]; ligand concentration 12 (unit not given), replicate column 1 of 3) was 15563. For the same compound, the “Fluorescence competitive binding assay, OBP2 (raw fluorescence reading)” value ([2]; ligand concentration 12 (unit not given), replicate column 2 of 3) was 19243, the “Fluorescence competitive binding assay, OBP2 (raw fluorescence reading)” value ([2]; ligand concentration 12 (unit not given), replicate column 3 of 3) was 19003 and the “Fluorescence competitive binding assay, OBP2 (raw fluorescence reading)” value ([2]; ligand concentration 14 (unit not given), replicate column 1 of 3) was 19071. For the same compound, the “Fluorescence competitive binding assay, OBP2 (raw fluorescence reading)” value ([2]; ligand concentration 14 (unit not given), replicate column 2 of 3) was 18512, the “Fluorescence competitive binding assay, OBP2 (raw fluorescence reading)” value ([2]; ligand concentration 14 (unit not given), replicate column 3 of 3) was 18689 and the “Fluorescence competitive binding assay, OBP2 (raw fluorescence reading)” value ([2]; ligand concentration 16 (unit not given), replicate column 1 of 3) was 17244. The “Fluorescence competitive binding assay, OBP2 (raw fluorescence reading)” value ([2]; ligand concentration 16 (unit not given), replicate column 2 of 3) was 19263, the “Fluorescence competitive binding assay, OBP2 (raw fluorescence reading)” value ([2]; ligand concentration 16 (unit not given), replicate column 3 of 3) was 18663 and the “Fluorescence competitive binding assay, OBP2 (raw fluorescence reading)” value ([2]; ligand concentration 18 (unit not given), replicate column 1 of 3) was 23408. The “Fluorescence competitive binding assay, OBP2 (raw fluorescence reading)” value ([2]; ligand concentration 18 (unit not given), replicate column 2 of 3) was 23725, the “Fluorescence competitive binding assay, OBP2 (raw fluorescence reading)” value ([2]; ligand concentration 18 (unit not given), replicate column 3 of 3) was 20804 and the “Fluorescence competitive binding assay, OBP2 (raw fluorescence reading)” value ([2]; ligand concentration 20 (unit not given), replicate column 1 of 3) was 16894. The “Fluorescence competitive binding assay, OBP2 (raw fluorescence reading)” value ([2]; ligand concentration 20 (unit not given), replicate column 2 of 3) was 20680, the “Fluorescence competitive binding assay, OBP2 (raw fluorescence reading)” value ([2]; ligand concentration 20 (unit not given), replicate column 3 of 3) was 19308 and the “Fluorescence competitive binding assay, fluorescence intensity” value ([3]; ligand concentration 2) was 35042 and 35938 and 36236. For the same compound, the “Fluorescence competitive binding assay, fluorescence intensity” value ([3]; ligand concentration 4) was 33936 and 35041 and 36163, the “Fluorescence competitive binding assay, fluorescence intensity” value ([3]; ligand concentration 6) was 30371 and 31101 and 32222 and the “Fluorescence competitive binding assay, fluorescence intensity” value ([3]; ligand concentration 8) was 32781 and 31040 and 32847. For the same compound, the “Fluorescence competitive binding assay, fluorescence intensity” value ([3]; ligand concentration 10) was 31032 and 32369 and 33307, the “Fluorescence competitive binding assay, fluorescence intensity” value ([3]; ligand concentration 12) was 29013 and 34433 and 32292 and the “Fluorescence competitive binding assay, fluorescence intensity” value ([3]; ligand concentration 14) was 31092 and 30872 and 34922. The “Fluorescence competitive binding assay, fluorescence intensity” value ([3]; ligand concentration 16) was 33838 and 32037 and 30214, the “Fluorescence competitive binding assay, fluorescence intensity” value ([3]; ligand concentration 18) was 37931 and 38340 and 38776 and the “Fluorescence competitive binding assay, fluorescence intensity” value ([3]; ligand concentration 20) was 37363 and 39141 and 38102. For the same compound, the “binding affinity to SfurOBP3 (in words)” value ([3]; SfurOBP3) was “high binding affinities”, the pIC50 ([3]; SfurOBP3, protein and 1-NPN both 2.0 µM, competitor 2-20 µM, read-out: IC50) was less than 4.70 and the pIC50 ([4]; SfurOBP11, protein and 1-NPN both 2.0 µM, competitor 2-20 µM, read-out: IC50) was less than 4.70. For the same compound, the “Fluorescence intensity, fluorescence competitive binding assay, OBP11” value (“Fluorescence intensity … OBP11” for short) ([4]; ligand concentration 4, replicate 1) was 32002, the “Fluorescence intensity … OBP11” value ([4]; ligand concentration 6, replicate 1) was 31916 and the “Fluorescence intensity … OBP11” value ([4]; ligand concentration 8, replicate 1) was 31638. The “Fluorescence intensity … OBP11” value ([4]; ligand concentration 8, replicate 2) was 32522, the “Fluorescence intensity … OBP11” value ([4]; ligand concentration 8, replicate 3) was 31984 and the “Fluorescence intensity … OBP11” value ([4]; ligand concentration 10, replicate 1) was 34517. For the same compound, the “Fluorescence intensity … OBP11” value ([4]; ligand concentration 10, replicate 2) was 33120, the “Fluorescence intensity … OBP11” value ([4]; ligand concentration 10, replicate 3) was 33819 and the “Fluorescence intensity … OBP11” value ([4]; ligand concentration 12, replicate 3) was 31678. The “Fluorescence intensity … OBP11” value ([4]; ligand concentration 14, replicate 1) was 31889, the “Fluorescence intensity … OBP11” value ([4]; ligand concentration 14, replicate 2) was 31807 and the “Fluorescence intensity … OBP11” value ([4]; ligand concentration 14, replicate 3) was 32302. For the same compound, the “Fluorescence intensity … OBP11” value ([4]; ligand concentration 18, replicate 1) was 36648, the “Fluorescence intensity … OBP11” value ([4]; ligand concentration 18, replicate 2) was 40474 and the “Fluorescence intensity … OBP11” value ([4]; ligand concentration 18, replicate 3) was 36079. The “Fluorescence intensity … OBP11” value ([4]; ligand concentration 20, replicate 1) was 36041, the “Fluorescence intensity … OBP11” value ([4]; ligand concentration 20, replicate 2) was 35048 and the “Fluorescence intensity … OBP11” value ([4]; ligand concentration 20, replicate 3) was 35313. For the same compound, the “Fluorescence competitive binding assay, fluorescence intensity” value ([5]; ligand concentration 2 (μM)) was 5991 and 6647 and 6019, the “Fluorescence competitive binding assay, fluorescence intensity” value ([5]; ligand concentration 4 (μM)) was 9444 and 9717 and 9590 and the “Fluorescence competitive binding assay, fluorescence intensity” value ([5]; ligand concentration 6 (μM)) was 8928 and 9981 and 10192. For the same compound, the “Fluorescence competitive binding assay, fluorescence intensity” value ([5]; ligand concentration 8 (μM)) was 7764 and 12061 and 8808, the “Fluorescence competitive binding assay, fluorescence intensity” value ([5]; ligand concentration 10 (μM)) was 10672 and 12757 and 12848 and the “Fluorescence competitive binding assay, fluorescence intensity” value ([5]; ligand concentration 12 (μM)) was 11226 and 16440 and 11668. The “Fluorescence competitive binding assay, fluorescence intensity” value ([5]; ligand concentration 14 (μM)) was 11457 and 12509 and 12654, the “Fluorescence competitive binding assay, fluorescence intensity” value ([5]; ligand concentration 16 (μM)) was 9720 and 12853 and 11395 and the “Fluorescence competitive binding assay, fluorescence intensity” value ([5]; ligand concentration 18 (μM)) was 14020 and 17603 and 13863. For the same compound, the “Fluorescence competitive binding assay, fluorescence intensity” value ([5]; ligand concentration 20 (μM)) was 16799 and 14644 and 13556 and the pIC50 ([5]; SfurOBP1, protein and 1-NPN both 2.0 µM, competitor 2-20 µM, read-out: IC50) was less than 4.70.
